Patent publication EP4624471A1, “PKMYT1 INHIBITOR, PREPARATION METHOD THEREFOR, AND PHARMACEUTICAL COMPOSITION AND USE THEREOF” (Shanghai Qilu Pharmaceutical Research and Development …, priority 2022, dated 2024)
pIC50: −log10 of the molar value. Where two headings read alike, the source gives them in different places.

What was measured:
HCC1569 cells = experiment: Cytostatic activity, CTG assay (HCC1569); type: cell-based; settings: 5 days
Procedure: Biological test example 2. Cytostatic activity of compounds of the present disclosure
CTG assay (HCC1569) was used to verify the biological activity of some of the example compounds of the present disclosure.
HCC1569 cells were purchased from ATCC (Cat. No.: CRL-2330) and cultured in a 37°C, 5% CO2 cell culture incubator. HCC1569 complete medium: RPMI-1640 liquid medium (Cat. No.: Gibico 11875-093), 20% FBS (Cat. No.: Gibico 10099-141), 1% Pen Strep (Cat. No.: Gibico 15070-063).
HCC1569 cells in a 75 cm^2 culture flask were digested with 2 mL of trypsin for 2-3 min, and then neutralized with 2 mL of 1640 complete medium. The mixture was centrifuged at 1200 rpm for 5 minutes. Cells were resuspended using 4 mL of 1640 complete medium. 500 µL of cell suspension was taken for cell counting using Vi-CELL-XR cell counter.
Using a Multidrop instrument, the HCC1569 cells were seeded in a 384-well plate at a density of 1000 cells per well (50 µL 1640 Growth Media) and administrated 24 hours later.
Using an ultra-micro pipette, the test compound (concentration: 3.33 mM, dissolved in DMSO) was diluted with 10 µM as the highest starting concentration, and then sequentially diluted in 10 gradients at a ratio of 1:3 (10000 nM, 3333 nM, 1111 nM, 370 nM, 123 nM, 41 nM, 13.7 nM, 4.6 nM, 1.5 nM, 0.5 nM) for administration treatment, with two duplicate wells for each concentration; 14 wells for positive and negative controls were set, with the positive control being the duplicate wells of 10 µM positive compound and the negative control being the duplicate wells of DMSO.
After the administration was completed, the cells were placed in a 37°C incubator for further culture for 5 days. After 5 days, 25 µL of CTG buffer was added to each well for CTG assay detection, and analyzed using a microplate reader. CTG readings were analyzed.
a = CTG value (highest concentration), b = CTG value (blank well), x = CTG value(test well).
IC50 was calculated using GraphPad PRISM 8.
Log10 (A compound concentration) was used for statistical calculation. (2) The data were input into GraphPad PRISM 8, and Analysis was selected. (3) Nonlinear regression (curve fit) was selected. (4) Log (inhibitor) vs. response-Variable slope was selected. (5) The calculation formula was selected, and the calculation was carried out according to the following formula: Y = Bottom + (Top-Bottom)/(1+10^((LogIC50-X)*HillSlope)), X: logarithm of dose or concentration, Y: response value, Top and Bottom: peak and bottom values. (6) The data were fitted to obtain IC50 values. (7) The fitting conditions were adjusted according to the specific data. Appropriate Constraint conditions were adjusted for Bottom, Top, and HillSlope. The curve that best fits the actual situation has been reached.

PKMYT1 enzyme = target: T1, PKMYT1 enzyme (Homo sapiens, UniProt Q99640); experiment: PKMYT1 enzyme inhibition activity, ADP-GLO method; type: biochemical
T1 construct: purchased Thermo Scientific A33387
T1 sequence (Q99640 1-499): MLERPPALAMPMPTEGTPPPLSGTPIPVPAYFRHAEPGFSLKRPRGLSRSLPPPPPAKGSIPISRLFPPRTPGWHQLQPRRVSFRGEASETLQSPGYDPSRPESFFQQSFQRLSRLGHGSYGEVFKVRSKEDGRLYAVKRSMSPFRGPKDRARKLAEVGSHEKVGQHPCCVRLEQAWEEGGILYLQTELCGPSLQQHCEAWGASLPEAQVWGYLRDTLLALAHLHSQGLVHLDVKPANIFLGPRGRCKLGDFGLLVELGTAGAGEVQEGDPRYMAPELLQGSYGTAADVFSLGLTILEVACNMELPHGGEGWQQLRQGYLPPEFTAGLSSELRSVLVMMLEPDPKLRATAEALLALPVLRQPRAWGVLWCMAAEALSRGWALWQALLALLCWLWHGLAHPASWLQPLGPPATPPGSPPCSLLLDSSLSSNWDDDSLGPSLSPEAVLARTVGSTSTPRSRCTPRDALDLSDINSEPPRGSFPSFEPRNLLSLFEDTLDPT
Procedure: Enzyme inhibition activity of compounds of the present disclosure
The enzyme activity of some of the example compounds was verified using the ADP-GLO method.
PKMYT1 enzyme protein was purchased from Thermo Scientific (Cat. No.: A33387), and the ADP-GLO kit was purchased from Promega (Cat. No.: V9103).
PKMYT1 enzyme activity reaction buffer: 70 mM HEPES, 3 mM MgCl2, 3 mM MnCl2, 50 µg mL-1PEG20000, 3 µM sodium orthovanadate, 1.2 mM DTT.
The reaction plate with the added compounds was centrifuged at 2500 rpm for 1 minute.
The prepared enzyme solution was added to the reaction plate, 5 µL per well, and the final concentration of enzyme was 10 nM. The reaction plate was centrifuged at 1000 rpm for 1 minute. The reaction plate was placed in an incubator at 37°C for 15 minutes.
The prepared ATP substrate solution was added to the reaction plate, 5 µL per well, and the final concentration of ATP was 5 µM. The reaction plate was centrifuged at 1000 rpm for 1 minute. After sealing the plate with aluminum foil, the plate was placed in an incubator and the reaction was carried out at 37°C for 90 minutes.
10 µL of ADP-glo™ reagent was added to stop the kinase reaction and consume unconsumed ATP, leaving only ADP and a very low ATP background. The reaction plate was centrifuged at 1000 rpm for 1 minute. After sealing the plate with aluminum foil, the reaction was carried out at room temperature for 60 minutes.
ADP was converted to ATP by adding 20 µL of kinase detection reagent, and luciferase and luciferin were introduced to detect ATP. The reaction plate was centrifuged at 1000 rpm for 1 minute. After sealing the plate with aluminum foil, the reaction was carried out at room temperature for 60 minutes.
The ADP-GLO luminescence signal values were read by the microplate reader PHERAstar, and the readings were analyzed.

[1] = PKMYT1 enzyme 10 nM, ATP 5 µM, 37°C 90 minutes; read-out: ADP-GLO IC50

| Structure (SMILES) | pIC50 (HCC1569 cells) | pIC50 (PKMYT1 enzyme; [1]) | pIC50 (HCC1569 cells; Homo sapiens, HCC1569, 120 h) | pIC50 (HCC1569 cells; Homo sapiens, 120 h) | pIC50 (PKMYT1 enzyme; read-out: ADP-GLO IC50; PKMYT1 enzyme 10 nM, ATP 5 µM, 37°C 90 minutes) |
| --- | --- | --- | --- | --- | --- |
| Cc1cc2c(C(N)=O)c(N)n(-c3c(C)c(O)cc(F)c3C)c2nc1C (atropisomer, axis not shown) [Example 21] | 7.70 | 8.38 | – | – | – |
| Cc1nc(C2CC2)c2c(C(N)=O)c(N)n(-c3c(C)ccc(O)c3C)c2n1 (atropisomer, axis not shown) [Example 62.2] | – | 7.84 | 7.22 | – | – |
| Cc1c(O)cc(F)c(C)c1-n1c(N)c(C(N)=O)c2cc(C(C)C)cnc21 (atropisomer, axis not shown) [Example 113.2] | – | 8.39 | 8.52 | – | – |
| Cc1c(O)cc(F)c(C)c1-n1c(N)c(C(N)=O)c2cc(-c3ccccc3)cnc21 (atropisomer, axis not shown) [Example 119.1] | – | 8.33 | 7.74 | – | – |
| CCc1cc2c(C(N)=O)c(N)n(-c3c(C)c(O)cc(F)c3C)c2nc1C (atropisomer, axis not shown) [Example 132.1] | 7.96 | 8.21 | – | – | – |
| CCc1cc2c(C(N)=O)c(N)n(-c3c(C)c(O)cc(F)c3C)c2nc1C (atropisomer, axis not shown) [Example 132] | 7.52 | 8.05 | – | – | – |
| C=C(C)c1cnc2c(c1)c(C(N)=O)c(N)n2-c1c(C)c(O)cc(F)c1C (atropisomer, axis not shown) [Example 133.1] | 7.92 | 8.61 | – | – | – |
| C=C(C)c1cnc2c(c1)c(C(N)=O)c(N)n2-c1c(C)c(O)cc(F)c1C (atropisomer, axis not shown) [Example 133] | – | 8.18 | 7.74 | – | – |
| Cc1cc(F)c(O)c(C)c1-n1c(N)c(C(N)=O)c2cc(C3CC3)c(C)nc21 (atropisomer, axis not shown) [Example 141] | – | 8.24 | 7.12 | – | – |
| C=Cc1cc2c(C(N)=O)c(N)n(-c3c(C)cc(F)c(O)c3C)c2nc1C (atropisomer, axis not shown) [Example 142] | – | 7.68 | 7.06 | – | – |
| Cc1cc(F)c(O)c(C)c1-n1c(N)c(C(N)=O)c2cc(C(C)C)c(C)nc21 (atropisomer, axis not shown) [Example 159.1] | – | 8.35 | 7.51 | – | – |
| Cc1cc(F)c(O)c(C)c1-n1c(N)c(C(N)=O)c2cc(N(C)C)c(C)nc21 (atropisomer, axis not shown) [Example 169.1] | – | 8.20 | 7.11 | – | – |
| Cc1cc(F)c(O)c(C)c1-n1c(N)c(C(N)=O)c2cc(C(C)C)cnc21 (atropisomer, axis not shown) [Example 170.2] | – | 8.00 | 7.10 | – | – |
| Cc1cc(F)c(O)c(C)c1-n1c(N)c(C(N)=O)c2cc(N3CCC3)c(C)nc21 (atropisomer, axis not shown) [Example 173.2] | – | 8.35 | 7.19 | – | – |
| Cc1cc(F)c(O)c(C)c1-n1c(N)c(C(N)=O)c2c3c(c(C)nc21)CCC3 (atropisomer, axis not shown) [Example 176.2] | – | 7.99 | 7.17 | – | – |
| Cc1nc2c(cc1Br)c(C(N)=O)c(N)n2-c1c(C)c(O)cc(F)c1C (racemic) [Example 104] | – | 8.49 | 7.82 | – | – |
| C=Cc1cc2c(C(N)=O)c(N)n(-c3c(C)c(O)cc(F)c3C)c2nc1C (racemic) [Example 111] | – | 8.45 | 7.89 | – | – |
| Cc1c(O)cc(F)c(C)c1-n1c(N)c(C(N)=O)c2cc(C(C)C)cnc21 (racemic) [Example 113] | – | 8.08 | 7.74 | – | – |
| Cc1c(O)cc(F)c(C)c1-n1c(N)c(C(N)=O)c2cc(-c3ccnn3C)cnc21 (racemic) [Example 118] | – | 8.39 | 7.19 | – | – |
| Cc1c(O)cc(F)c(C)c1-n1c(N)c(C(N)=O)c2cc(-c3ccccc3)cnc21 (racemic) [Example 119] | – | 7.82 | 7.36 | – | – |
| Cc1cc(F)c(O)c(C)c1-n1c(N)c(C(N)=O)c2cc(C(C)C)c(C)nc21 (racemic) [Example 159] | – | 7.82 | 7.25 | – | – |

| Structure (SMILES) | pIC50 (HCC1569 cells) | pIC50 (PKMYT1 enzyme; [1]) | pIC50 (HCC1569 cells; Homo sapiens, HCC1569, 120 h) | pIC50 (HCC1569 cells; Homo sapiens, 120 h) | pIC50 (PKMYT1 enzyme; read-out: ADP-GLO IC50; PKMYT1 enzyme 10 nM, ATP 5 µM, 37°C 90 minutes) |
| --- | --- | --- | --- | --- | --- |
| Cc1cc(F)c(O)c(C)c1-n1c(N)c(C(N)=O)c2cc(C3CC3)c(C)nc21 (single isomer, unassigned) [Example 141.1] | – | 8.59 | 7.21 | – | – |
| Cc1cc2c(C(N)=O)c(N)n(-c3c(C)c(O)cc(F)c3C)c2nc1C [Example 20, 2-amino-1-(3-fluoro-5-hydroxy-2,6-dimethylphenyl)-5,6-dimethyl-1H-pyrrolo[2,3-b]pyridine-3-carboxamide] | – | 7.82 | 7.40 | – | – |
| Cc1cc(F)c(O)c(C)c1-n1c(N)c(C(N)=O)c2cc(Br)c(C)nc21 [Example 58, 2-Amino-5-bromo-1-(4-fluoro-3-hydroxy-2,6-dimethylphenyl)-6-methyl-1H-pyrrolo[2,3-b]pyridine-3-carboxamide] | – | 8.45 | – | 7.15 | – |
| Cc1c(O)cc(F)c(C)c1-n1c(N)c(C(N)=O)c2cc(C3CC3)cnc21 [Example 80] | – | 8.45 | 7.80 | – | – |
| Cc1c(O)cc(F)c(C)c1-n1c(N)c(C(N)=O)c2cc(Cl)cnc21 [Example 81] | – | 8.04 | 7.18 | – | – |
| Cc1c(O)cc(F)c(C)c1-n1c(N)c(C(N)=O)c2cc(Br)cnc21 [Example 99] | – | 8.01 | 7.40 | – | – |
| C#Cc1cnc2c(c1)c(C(N)=O)c(N)n2-c1c(C)c(O)cc(F)c1C [Example 101] | – | 8.17 | 7.03 | – | – |
| Cc1c(O)cc(F)c(C)c1-n1c(N)c(C(N)=O)c2cc(C3CCCCC3)cnc21 [Example 102] | – | 7.56 | 7.09 | – | – |
| Cc1nc2c(cc1F)c(C(N)=O)c(N)n2-c1c(C)c(O)cc(F)c1C [Example 105] | – | 8.61 | 7.27 | – | – |
| Cc1nc2c(cc1C1CC1)c(C(N)=O)c(N)n2-c1c(C)c(O)cc(F)c1C [Example 110] | – | 8.24 | 7.82 | – | – |
| Cc1nc2c(cc1C1CCCC1)c(C(N)=O)c(N)n2-c1c(C)c(O)cc(F)c1C [Example 112] | – | 7.47 | 7.74 | – | – |
| Cc1nc2c(cc1C1=CCCC1)c(C(N)=O)c(N)n2-c1c(C)c(O)cc(F)c1C [Example 116] | – | 7.59 | 7.55 | – | – |
| Cc1nc2c(cc1C(F)(F)F)c(C(N)=O)c(N)n2-c1c(C)c(O)cc(F)c1C [Example 120, 2-amino-1-(3-fluoro-5-hydroxy-2,6-dimethylphenyl)-6-methyl-5-(trifluoromethyl)-1H-pyrrolo[2,3-b]pyridine-3-carboxamide] | – | 8.04 | – | 7.85 | – |
| Cc1nc2c(cc1-c1ncco1)c(C(N)=O)c(N)n2-c1c(C)c(O)cc(F)c1C [Example 121] | – | 8.29 | 7.68 | – | – |
| C=Cc1nc2c(cc1C)c(C(N)=O)c(N)n2-c1c(C)c(O)cc(F)c1C [Example 122] | – | 8.06 | 7.55 | – | – |
| Cc1cc2c(C(N)=O)c(N)n(-c3c(C)c(O)cc(F)c3C)c2nc1-c1cccnc1 [Example 123] | – | 8.19 | 7.24 | – | – |
| Cc1cc(F)c(O)c(C)c1-n1c(N)c(C(N)=O)c2cc(C(F)F)c(C)nc21 [Example 204] | – | 7.72 | – | – | – |
| Cc1ccc(O)c(C)c1-n1c(N)c(C(N)=O)c2cc3c(ccn3C)nc21 [Example 206] | – | – | – | – | 8.18 |
| Cc1cc(F)c(O)c(C)c1-n1c(N)c(C(N)=O)c2c3cnccc3c(C)cc21 [Example 207] | – | 8.39 | – | – | – |
| Cc1c(O)cc(F)c(C)c1-n1c(N)c(C(N)=O)c2c3cnccc3c(C)cc21 [Example 208] | – | 8.34 | – | – | – |
